Assay [1] deals with T1, AHR (Homo sapiens, UniProt P35869).
T1 construct: U87 MG glioblastoma cells (ATCC #HTB-14) endogenously expressing AHR; endogenous in cells; host or cells: U87 MG glioblastoma cells (ATCC #HTB-14)
T1 sequence (P35869 11-848): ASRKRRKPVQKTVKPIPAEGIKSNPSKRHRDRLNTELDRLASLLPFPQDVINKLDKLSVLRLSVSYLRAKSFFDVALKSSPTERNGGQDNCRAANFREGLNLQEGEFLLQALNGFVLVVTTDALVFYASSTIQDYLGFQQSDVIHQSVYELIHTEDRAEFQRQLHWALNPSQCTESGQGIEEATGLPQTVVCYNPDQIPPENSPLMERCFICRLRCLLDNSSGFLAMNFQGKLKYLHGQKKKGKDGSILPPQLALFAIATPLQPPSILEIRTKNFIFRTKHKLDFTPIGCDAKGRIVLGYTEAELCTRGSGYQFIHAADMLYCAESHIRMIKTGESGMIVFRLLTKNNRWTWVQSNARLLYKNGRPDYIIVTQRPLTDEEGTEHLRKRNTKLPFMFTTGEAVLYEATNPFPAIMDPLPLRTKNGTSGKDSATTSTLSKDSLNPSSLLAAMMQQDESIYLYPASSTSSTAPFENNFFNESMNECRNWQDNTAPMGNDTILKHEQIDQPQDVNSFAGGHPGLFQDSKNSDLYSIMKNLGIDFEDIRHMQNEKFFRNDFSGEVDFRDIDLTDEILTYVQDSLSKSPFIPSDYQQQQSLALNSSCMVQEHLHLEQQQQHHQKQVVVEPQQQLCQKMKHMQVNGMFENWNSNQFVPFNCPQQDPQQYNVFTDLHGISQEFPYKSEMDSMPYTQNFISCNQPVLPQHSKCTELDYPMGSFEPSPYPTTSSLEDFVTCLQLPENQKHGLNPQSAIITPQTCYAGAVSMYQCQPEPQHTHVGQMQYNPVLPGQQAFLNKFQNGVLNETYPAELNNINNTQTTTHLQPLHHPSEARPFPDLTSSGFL
The assay can be described thus: In vitro assay 1: antagonism in human cell line (AHR transactivation, firefly luciferase reporter, kynurenic acid prestimulated). The class given is cell-based. Conditions: AHR Antagonism Human IC50 [M]. In a few lines: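 Antagonism is measured against kynurenic acid prestimulation in U87 MG glioblastoma cells carrying stable DRE-luciferase and Renilla reporters. Positive inhibition control: 150 μM kynurenic acid with 5 μM staurosporine. Values are normalized to controls; repeats are averaged or given as medians.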
A general note: Reporter assays use an easily measured gene product as a stand-in for the process of interest.

Assay [2] has as its target T2, AHR (Mus musculus, UniProt P30561).
T2 sequence (P30561 1-848 P471L/N533S/M589L): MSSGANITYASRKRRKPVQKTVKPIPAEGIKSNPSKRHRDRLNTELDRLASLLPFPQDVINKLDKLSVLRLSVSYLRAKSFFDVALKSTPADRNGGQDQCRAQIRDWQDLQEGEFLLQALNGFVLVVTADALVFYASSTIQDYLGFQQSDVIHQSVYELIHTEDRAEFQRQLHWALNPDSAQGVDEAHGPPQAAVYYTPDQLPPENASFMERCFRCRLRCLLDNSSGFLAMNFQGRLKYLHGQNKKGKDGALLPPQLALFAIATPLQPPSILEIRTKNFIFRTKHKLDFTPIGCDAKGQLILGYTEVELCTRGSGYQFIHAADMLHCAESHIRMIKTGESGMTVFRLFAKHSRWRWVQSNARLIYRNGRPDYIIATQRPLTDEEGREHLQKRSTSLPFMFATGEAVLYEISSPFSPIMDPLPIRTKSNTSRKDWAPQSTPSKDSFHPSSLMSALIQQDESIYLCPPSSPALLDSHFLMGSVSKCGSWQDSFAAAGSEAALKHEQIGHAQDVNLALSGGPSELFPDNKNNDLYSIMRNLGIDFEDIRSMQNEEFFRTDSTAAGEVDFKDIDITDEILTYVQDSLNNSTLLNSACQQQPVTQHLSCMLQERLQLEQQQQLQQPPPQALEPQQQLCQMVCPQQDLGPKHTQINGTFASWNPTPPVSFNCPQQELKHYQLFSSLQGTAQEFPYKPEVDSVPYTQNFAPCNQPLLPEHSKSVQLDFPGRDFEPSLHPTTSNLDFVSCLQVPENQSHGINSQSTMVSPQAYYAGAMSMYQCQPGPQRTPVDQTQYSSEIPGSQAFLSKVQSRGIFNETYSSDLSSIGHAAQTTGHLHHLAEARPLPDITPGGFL
The assay is described as follows: In vitro assay 3: antagonism in mouse cell line (AHR transactivation, firefly luciferase reporter, kynurenic acid prestimulated). In kind it is cell-based. The essentials: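 Luminescence from an AHR-dependent DRE-luciferase reporter, stably integrated in mouse cells, quantifies blockade of kynurenic acid-driven activation. Unstimulated cells mark maximal inhibition; normalization uses both control types, and multiply tested compounds carry mean or median values.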

The mark [3] stands for this setting: mouse Hepa 1c1c7 cells, 200 μM kynurenic acid, 20 hours, read-out: AHR Antagonism Mouse IC50.

Structures are written as SMILES. Where two headings read alike, the source gives them in different places. Where only a bound is given, the exact number is not on record here.

Usually IC50 stands for the midpoint of a concentration-inhibition curve. `O=C1NCCCC[C@@H]1Nc1nc2c(Br)cccc2c2nc(-c3ccc(Cl)cc3OC(F)F)nn12` [Example 576, (3S)-3-({7-bromo-2-[4-chloro-2-(difluoromethoxy)phenyl][1,2,4]triazolo[1,5-c]quinazolin-5-yl}amino)azepan-2-one]: the IC50 on AHR [1] was determined as 1.77e-08 M; on AHR [2] (setting [3]) it was 2.96 nM.

In the case of `CC[C@@H](Nc1nc2c(Br)cccc2c2nc(-c3ccc(Cl)cc3OC(F)F)nn12)C(N)=O` [Example 577, (2R)-2-({7-bromo-2-[4-chloro-2-(difluoromethoxy)phenyl][1,2,4]triazolo[1,5-c]quinazolin-5-yl}amino)butanamide], the half-inhibitory concentration (IC50) came out at 6.6e-10 M on AHR [1] and 0.281 nM at AHR [2] (read-out: AHR Antagonism Mouse IC50, mouse Hepa 1c1c7 cells, 200 μM kynurenic acid, 20 hours).

On to `CC(C)[C@@H](Nc1nc2c(Br)cccc2c2nc(-c3cnn(C)c3)nn12)C(N)=O` [Example 578, N^2-[7-bromo-2-(1-methyl-1H-pyrazol-4-yl)[1,2,4]triazolo[1,5-c]quinazolin-5-yl]-D-valinamide], for which the figures for the IC50 against AHR [1] and at AHR [2] (setting [3]) were 1.25e-08 M and 2.91 nM, respectively.

As for `O=C1NCCCC[C@H]1Nc1nc2c(Br)cccc2c2nc(-c3cn[nH]c3)nn12` [Example 579, (3R)-3-{[7-bromo-2-(1H-pyrazol-4-yl)[1,2,4]triazolo[1,5-c]quinazolin-5-yl]amino}azepan-2-one], the IC50 was determined as 1.13e-08 M at AHR [1] and 68.1 nM at AHR [2] (setting [3]).

`Cn1cc(-c2nc3c4cccc(Br)c4nc(N[C@H]4CCCCNC4=O)n3n2)cn1` [Example 580, (3S)-3-{[7-bromo-2-(1H-methyl-1H-pyrazol-4-yl)[1,2,4]triazolo[1,5-c]quinazolin-5-yl]amino}azepan-2-one]: the IC50 at AHR [1] was 5.4e-08 M; on AHR [2] (setting [3]) it was 61.4 nM.

Turning to `Cn1cc(-c2nc3c4cccc(C(F)(F)F)c4nc(N[C@@H]4CCCCNC4=O)n3n2)cn1` [Example 583, (3R)-3-{[2-(1-methyl-1H-pyrazol-4-yl)-7-(trifluoromethyl)[1,2,4]triazolo[1,5-c]quinazolin-5-yl]amino}azepan-2-one], the concentration for half-maximal inhibition (IC50) came out at 9.48e-10 M at AHR [1] and 3.11 nM at AHR [2] (setting [3]).

As to `Cn1cc(-c2nc3c4cccc(C(F)(F)F)c4nc(N[C@H]4CCCCNC4=O)n3n2)cn1` [Example 584, (3S)-3-{[2-(1-methyl-1H-pyrazol-4-yl)-7-(trifluoromethyl)[1,2,4]triazolo[1,5-c]quinazolin-5-yl]amino}azepan-2-one], the half-inhibitory concentration (IC50) at AHR [1] is 4.39e-08 M; at AHR [2] (setting [3]) it was 153 nM.

Take `Cn1cc(-c2nc3c4cccc(C(F)(F)F)c4nc(N[C@@H]4CCCNC4=O)n3n2)cn1` [Example 585, (3R)-3-{[2-(1-methyl-1H-pyrazol-4-yl)-7-(trifluoromethyl)[1,2,4]triazolo[1,5-c]quinazolin-5-yl]amino}piperidin-2-one]: the IC50 came to 6.91e-08 M against AHR [1] and 830 nM at AHR [2] (setting [3]).

For `COc1ccc(-c2nc3c4cccc(C(C)C)c4nc(N[C@@H]4CCCCNC4=O)n3n2)cc1` [Example 587, (3R)-3-{[2-(4-methoxyphenyl)-7-(propan-2-yl)[1,2,4]triazolo[1,5-c]quinazolin-5-yl]amino}azepan-2-one], the figures for the IC50 at AHR [1] and on AHR [2] (setting [3]) were 7.7e-09 M and 20.6 nM, respectively.

As to `CC(C)c1cccc2c1nc(N[C@@H]1CCCCNC1=O)n1nc(-c3cnn(C)c3)nc21` [Example 588, (3R)-3-{[2-(1-methyl-1H-pyrazol-4-yl)-7-(propan-2-yl)[1,2,4]triazolo[1,5-c]quinazolin-5-yl]amino}azepan-2-one], the IC50 on AHR [1] came out at 1.84e-08 M; at AHR [2] (setting [3]) it was 1060 nM.

As for `O=C1NCCCC[C@H]1Nc1nc2c(Br)cc(Br)cc2c2nc(-c3cccc(F)c3)nn12` [Example 592, (3R)-3-{[7,9-dibromo-2-(3-fluorophenyl)[1,2,4]triazolo[1,5-c]quinazolin-5-yl]amino}azepan-2-one], the IC50 was 5.21e-07 M at AHR [1] and greater than 20000 nM on AHR [2] (setting [3]).

Regarding `Cn1cc(-c2nc3c4cc(Br)cc(Br)c4nc(N[C@@H]4CCCCNC4=O)n3n2)cn1` [Example 594, (3R)-3-{[7,9-dibromo-2-(1-methyl-1H-pyrazol-4-yl)[1,2,4]triazolo[1,5-c]quinazolin-5-yl]amino}azepan-2-one], the IC50 against AHR [1] was 5.01e-07 M; on AHR [2] (setting [3]), greater than 20000 nM.

Take `O=C1NCCCC[C@H]1Nc1nc2ccccc2c2nc(-c3cnn(C4COC4)c3)nn12` [Example 595, (3R)-3-({2-[1-(oxetan-3-yl)-1H-pyrazol-4-yl][1,2,4]triazolo[1,5-c]quinazolin-5-yl}amino)azepan-2-one]: the IC50 against AHR [1] worked out at 5.18e-08 M; on AHR [2] (setting [3]) it was 34 nM.

On to `CN1CCC(n2cc(-c3nc4c5ccccc5nc(N[C@@H]5CCCCNC5=O)n4n3)cn2)CC1` [Example 596, (3R)-3-({2-[1-(1-methylpiperidin-4-yl)-1H-pyrazol-4-yl][1,2,4]triazolo[1,5-c]quinazolin-5-yl}amino)azepan-2-one], for which the IC50 at AHR [1] is 4.08e-06 M; on AHR [2] (setting [3]) it was 3140 nM.

Regarding `O=C1NCCCC[C@H]1Nc1nc2ccccc2c2nc(-c3cnn(CC4CCC4)c3)nn12` [Example 597, (3R)-3-({2-[1-(cyclobutylmethyl)-1H-pyrazol-4-yl][1,2,4]triazolo[1,5-c]quinazolin-5-yl}amino)azepan-2-one], the half-maximal inhibitory concentration (IC50) on AHR [1] worked out at 1.16e-08 M; on AHR [2] (setting [3]), 7.57 nM.

Take `O=C1NCCCC[C@H]1Nc1nc2ccccc2c2nc(-c3cnn(CCCO)c3)nn12` [Example 598, (3R)-3-({2-[1-(3-hydroxypropyl)-1H-pyrazol-4-yl][1,2,4]triazolo[1,5-c]quinazolin-5-yl}amino)azepan-2-one]: the values for the half-inhibitory concentration (IC50) against AHR [1] and on AHR [2] (setting [3]) were 2.8e-07 M and 171 nM, respectively.

For `CN(C)CCn1cc(-c2nc3c4ccccc4nc(N[C@@H]4CCCCNC4=O)n3n2)cn1` [Example 599, (3R)-3-[(2-{1-[2-(dimethylamino)ethyl]-1H-pyrazol-4-yl}[1,2,4]triazolo[1,5-c]quinazolin-5-yl)amino]azepan-2-one], the IC50 against AHR [1] was 5.81e-07 M; at AHR [2] (setting [3]) it was 2120 nM.

For `O=C1NCCCC[C@H]1Nc1nc2ccccc2c2nc(-c3cnn(C4CCOCC4)c3)nn12` [Example 600, (3R)-3-({2-[1-(oxan-4-yl)-1H-pyrazol-4-yI][1,2,4]triazolo[1,5-c]quinazolin-5-yl}amino)azepan-2-one], the IC50 was 4.48e-08 M against AHR [1] and 31.3 nM at AHR [2] (setting [3]).

In the case of `O=C1NCCCC[C@H]1Nc1nc2ccccc2c2nc(-c3cnn(CCO)c3)nn12` [Example 601, (3R)-3-({2-[1-(2-hydroxyethyl)-1H-pyrazol-4-yl][1,2,4]triazolo[1,5-c]quinazolin-5-yl}amino)azepan-2-one], the figures for the 50% inhibitory concentration (IC50) at AHR [1] and on AHR [2] (setting [3]) were 2.96e-07 M and 158 nM, respectively.

As for `O=C1NCCCC[C@H]1Nc1nc2ccccc2c2nc(-c3cnn(CC4CC4)c3)nn12` [Example 602, (3R)-3-({2-[1-(cyclopropylmethyl)-1H-pyrazol-4-yl][1,2,4]triazolo[1,5-c]quinazolin-5-yl}amino)azepan-2-one], the 50% inhibitory concentration (IC50) came out at 6.81e-09 M against AHR [1] and 2.69 nM at AHR [2] (setting [3]).

Values taken from patent publication US20230113037A1 (Bayer Aktiengesellschaft, priority 2019, published 2023).
